Key:
[1] = target: T1, human cloned CHRM2 receptor (Homo sapiens, UniProt P08172); test: CHRM2 Ca++ Flux Assay (M2_CHO cells, agonist mode); type: cell-based; settings: M2 CHO cells
T1 construct: expressed in transfected cells; host or cells: CHO-K1 (M2_CHO)
T1 sequence (P08172 1-466): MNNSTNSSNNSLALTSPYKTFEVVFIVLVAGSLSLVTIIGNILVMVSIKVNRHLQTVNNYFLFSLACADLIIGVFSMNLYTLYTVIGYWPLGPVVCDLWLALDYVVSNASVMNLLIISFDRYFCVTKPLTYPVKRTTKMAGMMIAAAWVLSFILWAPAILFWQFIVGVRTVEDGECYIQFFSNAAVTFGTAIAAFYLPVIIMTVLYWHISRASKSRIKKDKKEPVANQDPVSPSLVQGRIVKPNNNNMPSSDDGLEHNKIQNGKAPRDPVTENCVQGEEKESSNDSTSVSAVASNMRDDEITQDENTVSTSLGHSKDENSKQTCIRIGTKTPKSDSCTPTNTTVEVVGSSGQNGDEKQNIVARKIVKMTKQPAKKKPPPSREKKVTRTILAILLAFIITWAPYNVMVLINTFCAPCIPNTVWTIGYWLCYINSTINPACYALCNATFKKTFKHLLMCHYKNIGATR
Outline: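 Agonist activity was expressed as percent of the carbachol EC100 response, fitted by four-parameter regression on triplicate wells, with geometric means across repeat runs. Calcium traces over 3 minutes came from dye-loaded M2_CHO cells (12K/well) pre-incubated 60 min in Ca/Mg-free HBSS with 20 mM HEPES, 2.5 mM probenecid and 20 μM ATP.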

[2] = target: T2, human cloned CHRM4 receptor (Homo sapiens, UniProt P08173); test: CHRM4 Ca++ Flux Assay (M4_CHO cells, agonist mode); type: cell-based
T2 construct: expressed in transfected cells; host or cells: CHO-K1 (M4_CHO)
T2 sequence (P08173 1-479): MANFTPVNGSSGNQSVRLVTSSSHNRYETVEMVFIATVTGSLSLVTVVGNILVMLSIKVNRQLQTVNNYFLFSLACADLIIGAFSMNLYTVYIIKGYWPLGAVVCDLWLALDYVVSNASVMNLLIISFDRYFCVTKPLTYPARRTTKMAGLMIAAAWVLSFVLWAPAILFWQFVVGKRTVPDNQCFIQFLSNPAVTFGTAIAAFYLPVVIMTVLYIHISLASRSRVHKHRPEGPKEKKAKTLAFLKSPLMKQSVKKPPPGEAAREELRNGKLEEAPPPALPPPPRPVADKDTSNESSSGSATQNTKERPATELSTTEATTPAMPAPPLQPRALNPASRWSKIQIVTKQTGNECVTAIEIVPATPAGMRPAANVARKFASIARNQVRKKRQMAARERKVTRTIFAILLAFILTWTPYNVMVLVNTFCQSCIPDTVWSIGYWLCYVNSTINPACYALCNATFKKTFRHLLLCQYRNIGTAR
Outline: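 Agonist-mode calcium flux in an M4-expressing CHO-K1 line: compounds were dosed at 11 points in triplicate and fluorescence was tracked for 3 min. Cells were preloaded with Ca++ dye and kept in −Ca/−Mg HBSS with 20 μM ATP for 60 min. Efficacy is scaled to carbachol EC100; EC50s come from four-parameter regression, geometric mean across runs.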

Question: For CCC1(COc2ccc(F)cc2C2CCN([C@@H]3COC4(C3)CN(c3nnco3)C4)CC2)COC1 [Example 2P, (S)-7-(4-(2-((3-ethyloxetan-3-yl)methoxy)-5-fluorophenyl)piperidin-1-yl)-2-(1,3,4-oxadiazol-2-yl)-5-oxa-2-azaspiro[3.4]octane], which EC50 ([1]; agonist mode, geometric mean if tested more than once, read-out: M2 FDSS EC50) is on record?
Answer: The EC50 was 1070 nM.

Question: What about the Emax ([1]; Percent Activity (PA) measured to EC100 of Carbachol, read-out: M2 FDSS PA %) of the same compound?
Answer: Its Emax is 36%.

Question: What about the Emax ([2]; Percent Activity (PA), read-out: M4 FDSS PA %) of the same compound?
Answer: Its Emax is 75%.

Question: What about the EC50 ([2]; geometric mean if tested more than once, read-out: M4 FDSS EC50) of the same compound?
Answer: The EC50 was 85 nM.
